From patent US9648880B2, “Antifungal agents and uses thereof” (University of Massachusetts, priority 2012, dated 2017) come the findings set out here.

Assay [1] has as its system C. albicans hyphae formation. Kind of assay: filamentation assay (hyphal morphogenesis). Type of assay: cell-based, Candida albicans. As to conditions: for formation of hyphae: Spider media, HWP1-RFP reporter (Example 14); for inhibition of hyphal formation and induction of RFP: 12.5 μM, Spider media 16 hours, HWP1-RFP reporter. The source says:
Because the ability to interconvert between yeast and hyphal morphologies is usually correlated with pathogenicity (Finkel, 2010), we explored this observation in more detail. First, we assessed the effect of our compounds on the induction of hyphae by “Spider” media (Chauhan, 2009). For this experiment, we used a strain that contains the hyphal-specific HWP1 promoter to the Red Fluorescent Protein (RFP) open reading frame (Ganguly, 2011), which provides a molecular reporter for hyphae formation that we used in addition to visual examination of cell morphology. We initially tested each of the compounds that inhibit adhesion to polystyrene (FIG. 1B), as well as compounds #9, Q1 and Q2 (FIG. 3A), at concentration of 12.5 μM. […] Compounds Q1 and Q2 share a “Scaffold 1” backbone with compounds #4 and #9, but contain a quinoline group (FIG. 3A). Therefore, the compounds with a quinoline group can inhibit hyphae formation, but not adhesion to polystyrene or human cells (FIG. 3). […] Additionally, multiple chemical backbones are able to inhibit hyphae formation, because compound #12 has a “Scaffold 2” backbone (Table 2). To better discriminate the inhibitory compounds, we tested #4, 12 and Q1 at lower concentrations. […] Furthermore, as in the polystyrene adhesion assay (FIG. 8), compound #4 is effective at inhibiting hyphae formation at concentrations >2.5 μM.
Overnight cultures of SC5314 or SGH584 were pregrown in uridine-supplemented SC media at 30° C. to an OD600>13 and diluted 1:10 into prewarmed Spider medium (1% Peptone (Difco), 1% Mannitol (Sigma) and 0.2% K2HPO4 (Sigma) (Chauhan, 2009) in glass tubes and grown for 16 hrs at 37° C. shaking at 200 rpm in the presence or absence of drugs as indicated. DIC and fluorescence images were acquired using a Zeiss Axiovert 200 inverted microscope equipped with a Qicam 12-bit Fast 1394 digital CCD camera (Qimaging). Image acquisition was carried out using Openlab 5 software (Improvison).
Because the ability to interconvert between yeast and hyphal morphologies is usually correlated with pathogenicity, we explored this in more detail, examining induction of hyphae upon carbon starvation (using Spider media). We used a strain that contains the Red Fluorescent Protein (RFP) open reading frame driven by the hyphal-specific HWP1 promoter (Ganguly et al., Eukaryotic Cell 10:1448, 2011), which provides a molecular reporter for hyphae formation in addition to cell morphology. […] Therefore, the shared backbone of these compounds correlates with inhibition of multiple activities.
Hyphal morphogenesis is induced by multiple stimuli that act via multiple signal transduction pathways and is mediated by a complex transcriptional network. […] We detected morphological difference between control and compound #4-treated cultures as early as 60 minutes in 10% serum, and 90 minutes in Spider media.

For assay [2], the system named is C. albicans SC5314-GFP biofilm. Put plainly: biofilm formation on silicone elastomers. The assay is classed as cell-based, Candida albicans. As to conditions: for biofilm formation, visual inspection: silicone mesh. Here is the method:
FIGS. 5A-5C. Effect of small molecules on biofilm formation in vitro. FIG. 5A is a series of photographs showing biofilm formation on silicone elastomers. Biofilm assay was performed with SC5314-GFP and edt1^Δ/Δ-GFP and photographed after 60 hrs. Indicated compounds were added at 50 μM. Turbid medium indicates planktonic cells unattached to silicone elastomers when biofilm formation is inhibited. Clear medium with the cell attached to the silicone elastomer indicate establishment of functional biofilm. Each treatment was done in triplicate. FIG. 5B is a graph showing quantitation of turbidity of medium. Media was removed from the wells, vortexed vigorously and the OD at 600 nm was measured in a spectrophotometer. FIG. 5C is a graph showing quantitation of dry weight of biofilm. Dry weight in mg of air-dried silicone elastomers.
Fungal biofilm formation on implanted medical devices is a serious medical problem because these biofilms can lead to life-threatening systemic infections. An established in vitro assay to study device colonization makes use of silicone mesh as a surrogate surface (Nobile, 2006). We tested how the compounds that affected polystyrene adhesion (FIG. 1) would affect biofilm formation by visual inspection of the biofilms formed, by measuring the optical density of the supernatant liquid cultures, and by measuring their dry weights. […] Therefore, compounds #4 and Q1 were effective inhibitors of both hyphal morphogenesis (FIG. 4) and biofilm formation on silicone mesh (FIG. 5).
We adapted a published method (Nobile, 2006, supra). Autoclaved, pre-weighed silicone mesh squares (Bentec, Catalog Number PR72034-04N) were incubated overnight at 37° C. with undiluted bovine serum. Following washing with PBS, the squares were transferred to 12-well plates and incubated with 0.5 OD/ml SC5314-GFP cells in Spider medium (with or without drugs as indicated), for 90 min at 37° C., shaking at 200 rpm. Squares were washed in PBS and transferred to new 12-well plates containing fresh Spider medium with fresh drugs and incubated for 60 hrs in a 37° C. shaker at 200 rpm. The plates were then photographed, the liquid media were collected for A600 nm measurements, and the dry weights of the bound biofilms were measured following drying of the silicone squares in a chemical hood.

The test system of assay [3] is C. elegans infected with C. albicans. Kind of assay: C. elegans pathogenesis assay. Type of assay: in vivo, Caenorhabditis elegans. As to conditions: 12.5 μM. Here is the method:
We therefore tested whether compound #4 can alter fungal infections in two in vivo settings. First, we performed pathogenesis assays in which nematodes (Caenorhabditis elegans) are infected with C. albicans, resulting in killing of the nematode host (Jain, 2009; Okoli, 2009). We used this assay to test whether compound #4 might have a protective effect, exposing C. elegans to Candida albicans and either DMSO vehicle, the commonly used antifungal drug fluconazole at 12.5 μM, or compound #4 at the same concentration. […] Therefore, consistent with its in vitro activities, compound #4 functions as an antifungal agent in this model infection system.
Three worms in the L3/L4 stage were transferred to each of two NGM agar plates containing E. coli OP50 and grown at 20° C. for four days. On the day of the experiment, worms were washed off the plates with M9 buffer and centrifuged at 900×g for 2 min. The supernatant was removed, and the worms were then resuspended in a bleach solution (1:4 dilution of commercial bleach (5.25%) diluted in 0.25 M sodium hydroxide). The worm suspension was mixed gently by inversion for 3 min, and centrifuged for 2 min at 2,000×g. The pellet containing the eggs was washed with M9 buffer and centrifuged at 2,000×g for 2 min and then resuspended in 500 μl M9 buffer. […]

In a further assay the test system is C. albicans SC5314. Put plainly: alamarBlue-based polystyrene adhesion assay. The assay is classed as cell-based, Candida albicans. The source says: We prioritized the candidate compounds by testing the dose-dependence of their effects. Because of the laborious washing required to remove background crystal violet dye staining, we developed adhesion assays using alternative detection reagents. Previous experiments screens have used the vital dye alamarBlue to measure Candida viability (Lafleur, J. Antimicrob Chemother. 66: 820-826, 2011; Youngsaye supra), so we tested this reagent as a way to measure cells remaining adhered after washing. […] The majority of the reordered compounds were effective at reducing Candida adhesion at 50 μM, the concentration originally tested during the screen. […] Although compounds that were still effective at 25 μM were less generally less so at 7.5 μM (FIG. 1C), many candidates still reduced adhesion by >50% at this lower concentration.
Overnight cultures of SC5314 and edt1^−/− cells were grown and plated onto Immulon 2HB 96-well microtiter plates and treated with small molecules as described above. Following incubations, media was decanted and plates were washed twice with 100 μl/well PBS. alamarBlue (Life Technologies) was resuspended to a final concentration of 5% in RPMI buffered with 0.165 M MOPS and then 100 μl was added to each well, followed by further incubation for 2 hours at 37° C. Fluorescence signals at 555Ex/585Em were read using a SpectraMax M5 Plate reader (Molecular Devices).
(In general: Resazurin is reduced to fluorescent resorufin, in cell work by metabolically active cells.)

`O=C(NCCC12CC3CC(CC(C3)C1)C2)c1ccc(S(=O)(=O)N2CCOCC2)cc1` [Compound 26]: in assay [1], the formation of hyphae result is reported as “blocked formation of hyphae”. As for `O=C(c1csc2ccccc12)N1CCN(c2ccc(Cl)c(Cl)c2)CC1` [Compound 3], the “inhibition of hyphal formation and induction of RFP” value (“inhibition” below) in assay [1] was “did not block hyphal formation as efficiently”. `Cc1ccc(C(=O)N2CCN(c3ccc(Cl)cc3)CC2)cc1C` [Compound 7]: the “biofilm formation, visual inspection” value in assay [2] (50 μM, 60 hrs) is given as “most effectively kept the cells dispersed in the media rather than on the mesh”. Besides, in assay [1], the “inhibition” value was “did not block hyphal formation as efficiently”.

`Cc1cc(C)n(CC(O)Cn2c3ccc(Cl)cc3c3cc(Cl)ccc32)c(=O)n1` (centres unmarked) [Compound 21]: in assay [2] (50 μM, 60 hrs), the “media density (OD 600 nm)” value is “more modest than for the other compounds tested” and the “biofilm formation, visual inspection” value is recorded as “most effectively kept the cells dispersed in the media rather than on the mesh”.

For `COc1ccc(N2CCN(C(=O)CCCN3C(=O)c4cccc5cccc(c45)C3=O)CC2)cc1` [Compound 27], the “biofilm formation on silicone mesh” value in assay [2] (Example 14) was “effective inhibitors of both hyphal morphogenesis and biofilm formation on silicone mesh”. In addition, the formation of hyphae entry in assay [1] is given as “blocked formation of hyphae”.

Take `OC(Cn1cncn1)(Cn1cncn1)c1ccc(F)cc1F` [fluconazole, reference compound]: the “lifespan of infected worms” value in assay [3] was “increased the lifespan of the infected worms”. `Cc1ccc(N2CCN(C(=O)c3ccccc3)CC2)cc1Cl` [Compound 8]: the “inhibition” value in assay [1] is “did not block hyphal formation as efficiently”.

Regarding `COc1ccc(C(=O)Nc2cccc(Cl)c2)cc1Br` [Compound 12], the “biofilm formation, visual inspection” value in assay [2] (50 μM, 60 hrs) is listed as “most effectively kept the cells dispersed in the media rather than on the mesh”. The “synergy on adhesion upon combining compound #4 and compound #12” value in the assay with C. albicans SC5314 (#4 1.5 μM with #12 4 and 6 μM) is recorded as “did not further reduce adhesion”. The “effect on adhesion of compound alone” value with C. albicans SC5314 (compound #4 1.5 μM, compound #12 4 and 6 μM) is on record as “partial effects”. In addition, the “hyphae formation induced by Spider media” value in assay [1] (5 μM) is on record as “A few hyphae were observed”; in assay [1] (10 μM) it was “completely blocked the hyphae formation”. Further, the “inhibition” value in assay [1] is “most potently inhibited hyphal formation and induction of RFP”. Regarding `CCOc1ccc(NC(=O)c2c(NC(=O)CNCCc3ccccc3)sc3c2CCC3)cc1` [Compound 14], the formation of hyphae result in assay [1] is “blocked formation of hyphae”.
